Measurements reported in the CheMixHub ionic liquid set.
± gives the uncertainty stated by the source.

Assay: xn = mol fraction of the nth substance listed
Conditions: 100 kPa

C[N+](C)(C)Cc1ccccc1.[Cl-] + O=C([O-])c1ccccc1.[Na+] + O
viscosity (298.15 K, x1 = 9.698e-05, x2 = 0.001545): 0.924 ± 0.02 mPa·s
viscosity (298.15 K, x1 = 9.701e-05, x2 = 0.00127): 0.919 ± 0.02 mPa·s
viscosity (298.15 K, x1 = 9.703e-05, x2 = 0.0009982): 0.913 ± 0.02 mPa·s
viscosity (298.15 K, x1 = 9.706e-05, x2 = 0.0007245): 0.906 ± 0.02 mPa·s
viscosity (298.15 K, x1 = 9.709e-05, x2 = 0.0004525): 0.901 ± 0.02 mPa·s
viscosity (298.15 K, x1 = 9.711e-05, x2 = 0.0001803): 0.896 ± 0.02 mPa·s
viscosity (298.15 K, x1 = 0.0002915, x2 = 0.001548): 0.927 ± 0.02 mPa·s
viscosity (298.15 K, x1 = 0.0002916, x2 = 0.001): 0.915 ± 0.02 mPa·s
viscosity (298.15 K, x1 = 0.0002916, x2 = 0.001272): 0.92 ± 0.02 mPa·s
viscosity (298.15 K, x1 = 0.0002917, x2 = 0.0007258): 0.909 ± 0.02 mPa·s
viscosity (298.15 K, x1 = 0.0002918, x2 = 0.0004533): 0.902 ± 0.02 mPa·s
viscosity (298.15 K, x1 = 0.0002919, x2 = 0.0001807): 0.898 ± 0.02 mPa·s
viscosity (298.15 K, x1 = 0.0004867, x2 = 0.001551): 0.932 ± 0.02 mPa·s
viscosity (298.15 K, x1 = 0.0004868, x2 = 0.001275): 0.926 ± 0.02 mPa·s
viscosity (298.15 K, x1 = 0.0004869, x2 = 0.001002): 0.919 ± 0.02 mPa·s
viscosity (298.15 K, x1 = 0.0004871, x2 = 0.0007272): 0.913 ± 0.02 mPa·s
viscosity (298.15 K, x1 = 0.0004872, x2 = 0.0004542): 0.908 ± 0.02 mPa·s
viscosity (298.15 K, x1 = 0.0004873, x2 = 0.000181): 0.903 ± 0.02 mPa·s
viscosity (303.15 K, x1 = 9.698e-05, x2 = 0.001545): 0.835 ± 0.018 mPa·s
viscosity (303.15 K, x1 = 9.701e-05, x2 = 0.00127): 0.829 ± 0.018 mPa·s
viscosity (303.15 K, x1 = 9.703e-05, x2 = 0.0009982): 0.823 ± 0.018 mPa·s
viscosity (303.15 K, x1 = 9.706e-05, x2 = 0.0007245): 0.817 ± 0.018 mPa·s
viscosity (303.15 K, x1 = 9.709e-05, x2 = 0.0004525): 0.812 ± 0.018 mPa·s
viscosity (303.15 K, x1 = 9.711e-05, x2 = 0.0001803): 0.807 ± 0.018 mPa·s
viscosity (303.15 K, x1 = 0.0002915, x2 = 0.001548): 0.84 ± 0.019 mPa·s
viscosity (303.15 K, x1 = 0.0002916, x2 = 0.001): 0.827 ± 0.018 mPa·s
viscosity (303.15 K, x1 = 0.0002916, x2 = 0.001272): 0.833 ± 0.018 mPa·s
viscosity (303.15 K, x1 = 0.0002917, x2 = 0.0007258): 0.821 ± 0.018 mPa·s
viscosity (303.15 K, x1 = 0.0002918, x2 = 0.0004533): 0.816 ± 0.018 mPa·s
viscosity (303.15 K, x1 = 0.0002919, x2 = 0.0001807): 0.812 ± 0.018 mPa·s
viscosity (303.15 K, x1 = 0.0004867, x2 = 0.001551): 0.843 ± 0.019 mPa·s
viscosity (303.15 K, x1 = 0.0004868, x2 = 0.001275): 0.837 ± 0.018 mPa·s
viscosity (303.15 K, x1 = 0.0004869, x2 = 0.001002): 0.831 ± 0.018 mPa·s
viscosity (303.15 K, x1 = 0.0004871, x2 = 0.0007272): 0.826 ± 0.018 mPa·s
viscosity (303.15 K, x1 = 0.0004872, x2 = 0.0004542): 0.82 ± 0.018 mPa·s
viscosity (303.15 K, x1 = 0.0004873, x2 = 0.000181): 0.815 ± 0.018 mPa·s
viscosity (308.15 K, x1 = 9.698e-05, x2 = 0.001545): 0.753 ± 0.017 mPa·s
viscosity (308.15 K, x1 = 9.701e-05, x2 = 0.00127): 0.748 ± 0.017 mPa·s
viscosity (308.15 K, x1 = 9.703e-05, x2 = 0.0009982): 0.742 ± 0.017 mPa·s
viscosity (308.15 K, x1 = 9.706e-05, x2 = 0.0007245): 0.737 ± 0.016 mPa·s
viscosity (308.15 K, x1 = 9.709e-05, x2 = 0.0004525): 0.731 ± 0.016 mPa·s
viscosity (308.15 K, x1 = 9.711e-05, x2 = 0.0001803): 0.726 ± 0.016 mPa·s
viscosity (308.15 K, x1 = 0.0002915, x2 = 0.001548): 0.758 ± 0.017 mPa·s
viscosity (308.15 K, x1 = 0.0002916, x2 = 0.001): 0.747 ± 0.017 mPa·s
viscosity (308.15 K, x1 = 0.0002916, x2 = 0.001272): 0.752 ± 0.017 mPa·s
viscosity (308.15 K, x1 = 0.0002917, x2 = 0.0007258): 0.74 ± 0.016 mPa·s
viscosity (308.15 K, x1 = 0.0002918, x2 = 0.0004533): 0.735 ± 0.016 mPa·s
viscosity (308.15 K, x1 = 0.0002919, x2 = 0.0001807): 0.731 ± 0.016 mPa·s
viscosity (308.15 K, x1 = 0.0004867, x2 = 0.001551): 0.76 ± 0.017 mPa·s
viscosity (308.15 K, x1 = 0.0004868, x2 = 0.001275): 0.754 ± 0.017 mPa·s
viscosity (308.15 K, x1 = 0.0004869, x2 = 0.001002): 0.748 ± 0.017 mPa·s
viscosity (308.15 K, x1 = 0.0004871, x2 = 0.0007272): 0.743 ± 0.017 mPa·s
viscosity (308.15 K, x1 = 0.0004872, x2 = 0.0004542): 0.737 ± 0.016 mPa·s
viscosity (308.15 K, x1 = 0.0004873, x2 = 0.000181): 0.733 ± 0.016 mPa·s
viscosity (313.15 K, x1 = 9.698e-05, x2 = 0.001545): 0.654 ± 0.015 mPa·s
viscosity (313.15 K, x1 = 9.701e-05, x2 = 0.00127): 0.65 ± 0.015 mPa·s
viscosity (313.15 K, x1 = 9.703e-05, x2 = 0.0009982): 0.645 ± 0.015 mPa·s
viscosity (313.15 K, x1 = 9.706e-05, x2 = 0.0007245): 0.64 ± 0.014 mPa·s
viscosity (313.15 K, x1 = 9.709e-05, x2 = 0.0004525): 0.635 ± 0.014 mPa·s
viscosity (313.15 K, x1 = 9.711e-05, x2 = 0.0001803): 0.629 ± 0.014 mPa·s
viscosity (313.15 K, x1 = 0.0002915, x2 = 0.001548): 0.652 ± 0.015 mPa·s
viscosity (313.15 K, x1 = 0.0002916, x2 = 0.001): 0.64 ± 0.014 mPa·s
viscosity (313.15 K, x1 = 0.0002916, x2 = 0.001272): 0.647 ± 0.015 mPa·s
viscosity (313.15 K, x1 = 0.0002917, x2 = 0.0007258): 0.637 ± 0.014 mPa·s
viscosity (313.15 K, x1 = 0.0002918, x2 = 0.0004533): 0.631 ± 0.014 mPa·s
viscosity (313.15 K, x1 = 0.0002919, x2 = 0.0001807): 0.626 ± 0.014 mPa·s
viscosity (313.15 K, x1 = 0.0004867, x2 = 0.001551): 0.665 ± 0.015 mPa·s
viscosity (313.15 K, x1 = 0.0004868, x2 = 0.001275): 0.66 ± 0.015 mPa·s
viscosity (313.15 K, x1 = 0.0004869, x2 = 0.001002): 0.655 ± 0.015 mPa·s
viscosity (313.15 K, x1 = 0.0004871, x2 = 0.0007272): 0.649 ± 0.015 mPa·s
viscosity (313.15 K, x1 = 0.0004872, x2 = 0.0004542): 0.645 ± 0.015 mPa·s
viscosity (313.15 K, x1 = 0.0004873, x2 = 0.000181): 0.64 ± 0.014 mPa·s
viscosity (318.15 K, x1 = 9.698e-05, x2 = 0.001545): 0.566 ± 0.013 mPa·s
viscosity (318.15 K, x1 = 9.701e-05, x2 = 0.00127): 0.562 ± 0.013 mPa·s
viscosity (318.15 K, x1 = 9.703e-05, x2 = 0.0009982): 0.558 ± 0.013 mPa·s
viscosity (318.15 K, x1 = 9.706e-05, x2 = 0.0007245): 0.552 ± 0.013 mPa·s
viscosity (318.15 K, x1 = 9.709e-05, x2 = 0.0004525): 0.548 ± 0.013 mPa·s
viscosity (318.15 K, x1 = 9.711e-05, x2 = 0.0001803): 0.544 ± 0.012 mPa·s
viscosity (318.15 K, x1 = 0.0002915, x2 = 0.001548): 0.562 ± 0.013 mPa·s
viscosity (318.15 K, x1 = 0.0002916, x2 = 0.001): 0.554 ± 0.013 mPa·s
viscosity (318.15 K, x1 = 0.0002916, x2 = 0.001272): 0.559 ± 0.013 mPa·s
viscosity (318.15 K, x1 = 0.0002917, x2 = 0.0007258): 0.55 ± 0.013 mPa·s
viscosity (318.15 K, x1 = 0.0002918, x2 = 0.0004533): 0.544 ± 0.012 mPa·s
viscosity (318.15 K, x1 = 0.0002919, x2 = 0.0001807): 0.54 ± 0.012 mPa·s
viscosity (318.15 K, x1 = 0.0004867, x2 = 0.001551): 0.577 ± 0.013 mPa·s
viscosity (318.15 K, x1 = 0.0004868, x2 = 0.001275): 0.573 ± 0.013 mPa·s
viscosity (318.15 K, x1 = 0.0004869, x2 = 0.001002): 0.569 ± 0.013 mPa·s
viscosity (318.15 K, x1 = 0.0004871, x2 = 0.0007272): 0.563 ± 0.013 mPa·s
viscosity (318.15 K, x1 = 0.0004872, x2 = 0.0004542): 0.559 ± 0.013 mPa·s
viscosity (318.15 K, x1 = 0.0004873, x2 = 0.000181): 0.555 ± 0.013 mPa·s
